Test results reported in US5484801A, “Pharmaceutical composition for inhibiting HIV protease” (Abbott Laboratories, priority 1995, dated 1996).
Entries after “also recorded” stand apart in the source; their conditions may differ.

Experiments:
HIV-2 protease = assay: Inhibition of HIV-2 protease; assay type: biochemical; conditions: statement in words
[1] = Oral bioavailability in dogs, Protocol A (solid dosage forms); assay type: in vivo, beagle dogs; conditions: dog, plasma; unformulated solid in a capsule dosage form, 5 mg/kg oral dose in dogs
Protocol: Each dog received a single solid dosage form corresponding to a 5 mg/kg dose of the drug.

HIV-1 protease = HIV-1 protease (HIV-1 M:B_HXB2R, UniProt P04585); assay type: biochemical

Structure (SMILES) | inhibition of HIV-2 protease (HIV-2 protease) | bioavailability [1] [%] | inhibition of HIV-1 protease (HIV-1 protease) | inhibition of HIV-2 protease (HIV-2 protease; listed as formula II)
CC(C)c1nc(CN(C)C(=O)N[C@H](C(=O)N[C@@H](Cc2ccccc2)C[C@H](O)[C@H](Cc2ccccc2)NC(=O)OCc2cncs2)C(C)C)cs1 [Compound III, (2S,3S,5S)-5-(N-(N-((N-Methyl-N-((2-isopropyl-4-thiazolyl)methyl)-amino)carbonyl)valinyl)amino)-2-(N-((5-thiazolyl)methoxycarbonyl)amino)-1,6-diphenyl-3-hydroxyhexane] | inhibitors | < 2 | inhibitors | –
CC(C)c1nc(CN(C)C(=O)NC(C(=O)NC(Cc2ccccc2)CC(O)C(Cc2ccccc2)NC(=O)OCc2cncs2)C(C)C)cs1 (stereo not drawn) [Compound II] | inhibitors | – | especially effective; also recorded: inhibitors | especially effective
